The source of these data is paper PMC5670201 (Scientific Reports, 2017).

pKd: −log10 of the molar value. Ends that are not written are not given here.

In one data set the target is T1, HSA Peptide 40 (Homo sapiens, UniProt P02768).
T1 construct: HSA 40 (479-496); purchased New England Peptide (Gardner, MA, USA)
In words: biochemical. Format: binding. The note with it: for binding to HSA Peptide 40: Biacore SPR screen, immobilized HSA Peptide 40 and vice versa. As for the experimental part: All peptides were run in the pM-uM concentration ranges. […] Short gaps in binding curves at transition times are from removal of solvent spikes during analysis. Binding kinetics were determined via Biacore Evaluation Software analysis of SPR sensograms. […] Structure, PDB 1BJ1, was visualized using UCSF Chimera.
The 3D structure of the positive variable region peptides were predicted by PEPFOLD 3.0 to compare to their beta hairpin structure within the full antibody[9]–[11] (Fig. 4d).
Peptides were run in the pM-uM concentration range. […] (b) Multiple sequence alignment of the variable region peptides in question, performed by Clustal Omega. […] (d) 3D structure prediction of peptides in solution performed by PEP-FOLD 3.0, visualized in Chimera. […] Pembrolizumab included as a negative control.
Peptides were re-suspended and stored in HBS running buffer at either 5 or 10 mg/ml, with up to 10% DMSO added as needed. All antibodies, peptides, as well as HSA, were immobilized on Biacore (GE Healthcare, Chicago, IL) CM5 chips via amine coupling according to manufacture protocol. Immobilization scouting was performed with pH 4.0–5.5 acetate at micromolar concentration ranges, to determine ideal immobilization conditions. […] All peptides and proteins were screened at multiple concentrations from pico to millimolarity, with an association time of 120 to 180 seconds and a dissociation time from 180 to 1200 seconds. Binding kinetics were determined using Biacore Evaluation Software and a 1:1 fit model.
The mixture was frozen, evaporated, and re-suspended in HPLC grade water with 0.1% trifluoroacetic acid. The digest was applied to a Waters X-Bridge Protein BEH C4 column (Waters, Milford, MA) and eluted off at a flow rate of 1 ml/min and a gradient of 0–60% Acetonitrile with 0.1% trifluroacetic acid over 60 minutes.
In general terms: Surface plasmon resonance follows binding to a sensor surface in real time, without labels.

The target in another data set is Human Serum Albumin (Homo sapiens, UniProt P02768). In words: Biacore SPR, antibody variable domain peptides and antibodies against human serum albumin. The note with it: for binding to human serum albumin: Biacore SPR screen, immobilized HSA and vice versa; for Kd: human, Biacore SPR, CM5 amine coupling, peptide over immobilized HSA and vice versa, pM-uM, 1:1 fit, read-out: Kinetic Binding Parameters Against Human Serum Albumin: KD. Format: binding. An excerpt: The 3D structure of the positive variable region peptides were predicted by PEPFOLD 3.0 to compare to their beta hairpin structure within the full antibody[9]-[11] (Fig. 4d). […] Peptides were run in the pM-uM concentration range. […] (b) Multiple sequence alignment of the variable region peptides in question, performed by Clustal Omega. […] (d) 3D structure prediction of peptides in solution performed by PEP-FOLD 3.0, visualized in Chimera. […] Pembrolizumab included as a negative control.

For the compound `CC(C)[C@H](NC(=O)[C@H](CC(N)=O)NC(=O)[C@H](Cc1ccccc1)NC(=O)[C@H](Cc1ccc(O)cc1)NC(=O)[C@H](Cc1c[nH]c2ccccc12)NC(=O)[C@H](CC(=O)O)NC(=O)CNC(=O)CNC(=O)[C@H](Cc1ccc(O)cc1)NC(=O)[C@H](Cc1ccc(O)cc1)NC(=O)[C@@H](NC(=O)[C@H](CO)NC(=O)[C@H](CCCNC(=N)N)NC(=O)[C@H](C)NC(=O)[C@H](CS)NC(=O)[C@@H](N)Cc1ccc(O)cc1)[C@@H](C)O)C(=O)N[C@@H](Cc1c[nH]c2ccccc12)C(=O)NCC(=O)N[C@@H](C)C(=O)NCC(=O)O` [RVP1], the “binding to HSA Peptide 40” value on HSA Peptide 40 is “bound both”. Besides, on Human Serum Albumin, the “binding to human serum albumin” value is reported as “bound both” and the Kd was 2.48e+06 pM. As to DTAVYYCAKYPHYYGSSHWYF [BVP1], on Human Serum Albumin, the Kd was 2.37e+06 pM. Compound “HYYGSSHWYFDVWGQ [Bevacizumab Heavy Chain 11]” showed a pKd on HSA Peptide 40 of 6.30. Further, the kon on HSA Peptide 40 (read-out: Kinetic Binding Parameters against HSA Peptide 40: kon) amounted to 357 M⁻¹ s⁻¹. As for “RVP2: Rituximab Variable Domain Peptide 2 (101-120)”, in the data set with HSA Peptide 40, the “binding to HSA Peptide 40” value was “binding neither”. For the same compound, the “binding to human serum albumin” value in the data set with Human Serum Albumin is reported as “binding neither”. Consider “rituximab: commercial monoclonal antibody, anti-CD20”, for which the “binding to human serum albumin” value in the data set with Human Serum Albumin was “do not bind HSA”.

Usually Kd stands for the equilibrium constant for the complex coming apart. Usually pKd stands for the negative decadic logarithm of the Kd, by convention in mol/L. Lower therefore signals a high Kd. For orientation: kon means the second-order rate constant of association.
